What was measured:
[1] = system: S100A4; test: S100A4 expression in IPF patient fibroblasts (Western blot on whole cell lysates); format: cell-based, human
Procedure: (§1) Western blots for S100A4 (also know as FSP-1 or fibroblast specific protein-1) and E-Cadherin were performed on whole cell lysates.

[2] = molecular target: β-catenin/CBP interaction (Homo sapiens, UniProt Q92793); conditions: cited from earlier work
[3] = system: collagen 1A2; test: RT-PCR for collagen 1A2 in bleomycin treated mice; format: in vivo; conditions: ICG-001 5 mgs/Kg/day s.c.
[4] = system: S100A4; test: RT-PCR for S100A4 in bleomycin treated mice; format: in vivo; conditions: ICG-001 5 mgs/Kg/day s.c.
[5] = system: C57/B16 mice treated with intratracheal bleomeycin; test: Bleomycin induced murine pulmonary fibrosis model (lung sections, trichrome stain, body weight, survival); format: in vivo
Procedure: Murine models of bleomycin induced fibrosis have been developed in order to study fibrotic disease progression.
There is an absence of airway epithelium in lower left compared to upper left (see arrow heads) and extensive collagen deposition (lower left). On the sixth day, either saline (upper right) or ICG-001 (5 mgs/Kg/day) was administered for 10 days after which the mice were sacrificed and sectioned. Of interest is the upper right (saline treatment) showing lack of normal airway epithelialization, extensive collagen deposition and intra-airway hypercellularity (fibroblasts and inflammatory influx).

[6] = system: E-Cadherin; test: E-Cadherin expression in IPF patient fibroblasts (Western blot on whole cell lysates); format: cell-based, human; conditions: RPMI 1640+10% FBS, 2 days
Procedure: as §1

[7] = bleomycin 5 days, then ICG-001 5 mgs/Kg/day for 10 days from the sixth day
[8] = bleomycin 5 days, then ICG-001 5 mgs/Kg/day for 10 days, untreated controls did not

β-catenin/CBP interaction, sequence (Q92793 whole entry): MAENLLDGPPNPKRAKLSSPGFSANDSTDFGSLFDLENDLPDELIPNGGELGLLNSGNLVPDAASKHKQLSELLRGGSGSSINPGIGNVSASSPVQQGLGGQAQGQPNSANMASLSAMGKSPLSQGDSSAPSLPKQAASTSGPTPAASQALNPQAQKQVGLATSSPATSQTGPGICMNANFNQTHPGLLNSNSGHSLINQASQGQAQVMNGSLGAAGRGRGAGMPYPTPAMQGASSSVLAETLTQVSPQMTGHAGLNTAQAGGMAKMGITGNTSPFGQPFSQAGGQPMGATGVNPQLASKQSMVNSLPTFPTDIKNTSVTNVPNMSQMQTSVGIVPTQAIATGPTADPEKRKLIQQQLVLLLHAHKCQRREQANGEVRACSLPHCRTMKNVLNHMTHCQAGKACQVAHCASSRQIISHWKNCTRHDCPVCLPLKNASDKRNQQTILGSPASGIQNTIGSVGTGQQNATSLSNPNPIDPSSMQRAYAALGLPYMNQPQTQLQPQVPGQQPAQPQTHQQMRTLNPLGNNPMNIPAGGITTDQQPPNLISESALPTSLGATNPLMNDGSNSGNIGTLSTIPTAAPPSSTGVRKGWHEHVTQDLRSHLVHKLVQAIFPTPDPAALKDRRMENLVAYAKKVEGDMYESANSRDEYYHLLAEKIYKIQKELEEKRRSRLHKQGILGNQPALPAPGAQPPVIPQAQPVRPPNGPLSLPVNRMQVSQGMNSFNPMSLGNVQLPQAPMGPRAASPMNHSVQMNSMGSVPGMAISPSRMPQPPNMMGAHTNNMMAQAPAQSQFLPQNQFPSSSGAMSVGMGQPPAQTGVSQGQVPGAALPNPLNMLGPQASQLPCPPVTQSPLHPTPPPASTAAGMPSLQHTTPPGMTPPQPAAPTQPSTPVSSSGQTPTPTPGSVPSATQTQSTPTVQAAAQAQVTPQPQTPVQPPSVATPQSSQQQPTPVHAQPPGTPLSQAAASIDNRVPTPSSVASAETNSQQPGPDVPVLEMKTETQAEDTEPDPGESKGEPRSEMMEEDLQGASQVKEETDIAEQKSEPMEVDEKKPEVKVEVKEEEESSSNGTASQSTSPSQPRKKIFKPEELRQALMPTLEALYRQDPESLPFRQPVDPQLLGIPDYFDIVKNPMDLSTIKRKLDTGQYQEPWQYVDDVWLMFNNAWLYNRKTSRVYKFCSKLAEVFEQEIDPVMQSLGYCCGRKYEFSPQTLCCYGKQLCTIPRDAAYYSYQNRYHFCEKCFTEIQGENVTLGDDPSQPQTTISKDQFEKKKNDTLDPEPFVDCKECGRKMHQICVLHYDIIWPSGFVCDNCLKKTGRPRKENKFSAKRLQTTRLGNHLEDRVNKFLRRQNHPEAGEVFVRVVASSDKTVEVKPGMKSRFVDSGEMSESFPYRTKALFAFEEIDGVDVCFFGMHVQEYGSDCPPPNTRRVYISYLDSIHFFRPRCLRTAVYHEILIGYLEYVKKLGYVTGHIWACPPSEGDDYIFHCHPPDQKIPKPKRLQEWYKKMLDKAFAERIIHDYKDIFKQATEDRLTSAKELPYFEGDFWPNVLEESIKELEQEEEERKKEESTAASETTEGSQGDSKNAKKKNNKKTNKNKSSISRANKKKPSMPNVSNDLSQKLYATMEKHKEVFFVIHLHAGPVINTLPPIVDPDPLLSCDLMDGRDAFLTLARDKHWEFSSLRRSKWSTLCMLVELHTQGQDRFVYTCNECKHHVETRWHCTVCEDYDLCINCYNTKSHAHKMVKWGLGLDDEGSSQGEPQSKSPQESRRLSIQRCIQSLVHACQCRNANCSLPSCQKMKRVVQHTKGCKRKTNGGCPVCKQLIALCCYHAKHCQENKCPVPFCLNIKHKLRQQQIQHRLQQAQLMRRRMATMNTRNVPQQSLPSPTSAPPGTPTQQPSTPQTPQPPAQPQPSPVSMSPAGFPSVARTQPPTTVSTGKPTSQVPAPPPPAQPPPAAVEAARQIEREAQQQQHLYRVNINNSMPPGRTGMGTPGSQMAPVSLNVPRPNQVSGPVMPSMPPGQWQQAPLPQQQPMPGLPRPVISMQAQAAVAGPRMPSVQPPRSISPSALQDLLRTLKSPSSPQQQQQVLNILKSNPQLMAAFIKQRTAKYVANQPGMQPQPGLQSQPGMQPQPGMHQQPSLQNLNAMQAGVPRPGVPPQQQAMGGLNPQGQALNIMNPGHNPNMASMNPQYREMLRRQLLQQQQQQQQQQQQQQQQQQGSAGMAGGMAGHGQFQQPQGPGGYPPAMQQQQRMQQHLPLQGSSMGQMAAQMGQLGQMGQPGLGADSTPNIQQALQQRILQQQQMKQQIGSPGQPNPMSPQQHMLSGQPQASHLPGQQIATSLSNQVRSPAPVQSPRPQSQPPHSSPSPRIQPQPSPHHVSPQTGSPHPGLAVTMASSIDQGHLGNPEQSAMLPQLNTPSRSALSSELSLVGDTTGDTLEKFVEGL

O=C1[C@H](Cc2ccc(O)cc2)N2C(=O)CCN(C(=O)NCc3ccccc3)[C@H]2CN1Cc1cccc2ccccc12 [ICG-001]
S100A4 expression at the mRNA level [1]: this is also true at the mRNA level | S100A4 expression (Western blot) ([1]; RPMI 1640+10% FBS, 2 days): decreased | effect on β-catenin/CBP interaction [2]: selectively blocks | collagen 1A2 message (RT-PCR) [3]: reduced essentially to negative control | S100A4 message (RT-PCR) [4]: reduced essentially to negative control | airway appearance in lung sections [5, 7]: essentially normal | collagen levels (trichrome stain) [5, 7]: normal collagen levels | body weight [5, 8]: regained normal body weight | survival [5, 8]: survived | disease progression, as judged by reduced mortality, histopathology and endogenous gene expression ([5]; murine bleomycin model of pulmonary fibrosis, 5 mg/Kg/day): not only halts but reverses disease progression | E-cadherin expression (Western blot) [6]: increased

Reference: patent US7915251B2, “Alpha-helix mimetics and methods relating to the treatment of fibrosis” (Institute for Chemical Genomics, priority 2005, dated 2011)
